Key:
autonomic nerve = conditions: intravenous administration; cited from earlier work
[1] = system: parasympathetic (vagus) nerve controlling the stomach; assay: Action potential of the parasympathetic (vagus) nerve controlling the stomach (GVNA) after oral administration; assay type: in vivo, rat; conditions: rats, 5 to 60 minutes after administration, ANOVA
Protocol: Water or 0.045 mg/kg weight or 0.12 mg/kg weight of Tyr-Pro was administered to rats (n=3), and the action potential of the parasympathetic (vagus) nerve controlling the stomach was measured over time. […] Values for 5 to 60 minutes after the administration were treated as a group, and a significance test with respect to the water-administered control group was conducted by the analysis of variance (ANOVA).
Male Wister rats (approximately […]) (n=3) with a body weight of approximately 300 g were used, and they took food and water ad lib. To examine the activity of the autonomic nerve, after a 3-hour fast, a polyethylene tube for oral administration was inserted into the oral cavity of each rat under urethane anesthesia in the middle of a light period. Thereafter, a sympathetic nerve controlling the adrenal gland, a parasympathetic (vagus) nerve controlling the stomach, or sympathetic nerve in a cutaneous artery of the tail was hooked to a silver electrode, and the electrical activity of the nerve was determined. […] In a period where the activities of these nerves were stabilized, 1 ml of each sample was orally administered through a polyethylene tube, and the changes in activities of these nerves were measured. […]

opioid receptors = conditions: cited from earlier work
[2] = system: time of stay on the open arms; assay: Elevated plus-maze test (anti-anxiety effect); assay type: in vivo; conditions: ddY mice, oral 0.1 mg/kg weight to 100 mg/kg weight, test 30 minutes after administration
Protocol: Water, 0.1 mg/kg weight to 100 mg/kg weight of Tyr-Pro, or 10 mg/kg to 1000 mg/kg weight of a casein hydrolysate was administered to mice (n=12), and the time for which the mice stayed on open arms was measured (Example 4). […] The data were expressed in the form of mean±standard error. A significance test with respect to the water-administered control group was conducted by an unpaired Student's t test, and *, **, and *** indicate that P<0.05, P<0.01, and P<0.001, respectively.
Male ddY mice (approximately 6-week old) (n=12) were used. After preliminary feeding, Tyr-Pro (0.1 mg/kg weight, 1.0 mg/kg weight, 10 mg/kg weight, 30 mg/kg weight, or 100 mg/kg weight) or a casein hydrolysate (10 mg/kg weight, 100 mg/kg weight, or 1000 mg/kg weight) was administered once orally. The anti-anxiety effect was examined by an elevated plus-maze test 30 minutes after the administration. The casein hydrolysate was the same as that in Example 1. […] The behaviors thereof were observed, and the accumulative time of stay on the open arms was measured. From the measured value, the percentage of the accumulative time of stay on the open arms in a 5-minute test was found, and used as an index of the anti-anxiety effect. […] The measured values were expressed in the form of mean±standard error for each group and a comparison with the control group was conducted by using an unpaired Student's t test.

blood pressure = conditions: orally administered; cited from earlier work
[3] = system: gastric emptying function; assay: Gastric emptying function test (phenol red dye discharge); assay type: in vivo, rat; conditions: SD rats, oral 0.1 mg/kg weight, dye 30 minutes later, stomach extirpated 20 minutes after dye; mean±standard error; control 78.8±2.41%
Protocol: Water or 0.1 mg/kg weight of Tyr-Pro was administered to rats (n=10), and 30 minutes later a dye (phenol red) was administered. After additional 20 minutes, each stomach was extirpated, and the dye remaining in the stomach was determined. A significance test with respect to the water-administered control group was conducted by an unpaired Student's t test.
Male Sprague-Dawley (SD) rats (6-week old) (n=10) were used, and they took food and water ad lib. After preliminary feeding for one week or longer, the rats were subjected to the experiment. Prior to the test, all the rats were fasted in a fasting cage for 24 hours. During the period, the rats took water ad lib. In the test, a solvent (distilled water for injection) and 0.1 mg/kg weight of Tyr-Pro were orally administered to the rats, and, 30 minutes later, a 0.05% dye (phenol red) solution (containing 1.5% of carboxylmethyl cellulose) was orally administered at a volume of 1.5 ml/rat. Each stomach was extirpated under ether anesthesia 20 minutes after the administration of the dye without delay. […] The supernatant was centrifuged, and then measured for absorbance at 560 nm. The gastric emptying function (GE: gastric emptying) was calculated in accordance with the following formula.
GE(%)=(1−absorbance of solution recovered from stomachs of test-substance-administered group/absorbance at gastric emptying of 0%)×100 […]

[4] = system: scopolamine-induced amnesia; assay: Scopolamine-induced amnesia, Y-shaped maze test (spontaneous alternation behavior); assay type: in vivo; conditions: ddY mice, oral 1.5 mg/kg weight to 15 mg/kg weight, 60 minutes before Y-shaped maze; scopolamine 1 mg/kg s.c.
Protocol: A significance test on the groups was conducted by a Dunnett's multiple comparison test.
Male ddY mice (approximately 7-week old) (n=15) were used, and they took food and water ad lib.
The test substances were administered to the mice once orally 60 minutes before the execution of a Y-shaped maze test for evaluation of spontaneous alternation behavior. Further, 30 minutes before the execution of the Y-shaped maze test, 1 mg/kg weight of scopolamine was subcutaneously administered on the backs, of the mice in order to induce dysmnesia and/or cognitive impairment in the mice. […] The sequence of the arms into which each of the mice entered was recorded. The number of entries into the arms of each mouse during the measurement time was counted to be the total number of entries. […] The percentage of change in spontaneous alternation behavior was calculated by dividing the number of spontaneous alternation behavior by a number obtained by subtracting 2 from the total number of entries and multiplying a resultant number by 100. […] The measured values were expressed in the form of mean±standard error for each group. […]

[5] = system: sympathetic nerve in a cutaneous artery of the tail; assay: Action potential of the sympathetic nerve in the cutaneous artery of the tail (CASNA) after oral administration; assay type: in vivo, rat; conditions: rats, 0.12 mg/kg weight, 5 to 60 minutes after administration
Protocol: Water, 0.12 mg/kg weight of Tyr-Pro, or 4.2 mg/kg weight of a casein hydrolysate was administered to rats (n=3), and the action potential of the sympathetic nerve in the cutaneous artery of the tail was measured over time. […] Values for 5 to 60 minutes after the administration were treated as a group, and a significance test with respect to the water-administered control group was conducted by the analysis of variance (ANOVA).
Male Wister rats (approximately 0-week old) (n=3) with a body weight of approximately 300 g were used, and they took food and water ad lib. To examine the activity of the autonomic nerve, after a 3-hour fast, a polyethylene tube for oral administration was inserted into the oral cavity of each rat under urethane anesthesia in the middle of a light period. Thereafter, a sympathetic nerve controlling the adrenal gland, a parasympathetic (vagus) nerve controlling the stomach, or sympathetic nerve in a cutaneous artery of the tail was hooked to a silver electrode, and the electrical activity of the nerve was determined. […] In a period where the activities of these nerves were stabilized, 1 ml of each sample was orally administered through a polyethylene tube, and the changes in activities of these nerves were measured. […]

pain = conditions: rat, intraperitoneal; cited from earlier work
[6] = system: sympathetic nerve controlling the adrenal gland; assay: Action potential of the sympathetic nerve controlling the adrenal gland (ASNA) after oral administration; assay type: in vivo, rat; conditions: rats, 0.012 mg/kg weight, 5 to 60 minutes after administration, ANOVA
Protocol: […] […] Values for 5 to 60 minutes after the administration were treated as a group, and a significance test with respect to the water-administered control group was conducted by the analysis of variance (ANOVA).
Male Wister rats (approximately […]) (n=3) with a body weight of approximately 300 g were used, and they took food and water ad lib. To examine the activity of the autonomic nerve, after a 3-hour fast, a polyethylene tube for oral administration was inserted into the oral cavity of each rat under urethane anesthesia in the middle of a light period. Thereafter, a sympathetic nerve controlling the adrenal gland, a parasympathetic (vagus) nerve controlling the stomach, or sympathetic nerve in a cutaneous artery of the tail was hooked to a silver electrode, and the electrical activity of the nerve was determined. From the start of the operation to the completion of the determination, the tube was kept inserted in the trachea to secure the airway, and the body temperature (rectal temperature of the rat) was kept at 35.0±0.5° C. by using an incubator. In a period where the activities of these nerves were stabilized, 1 ml of each sample was orally administered through a polyethylene tube, and the changes in activities of these nerves were measured. […]

| Compound | effect of controlling the autonomic nerve (autonomic nerve) | parasympathetic nervous activity in the stomach in comparison with the water-administered group ([1]; 0.045 mg/kg weight) | parasympathetic nervous activity in the stomach in comparison with the water-administered group ([1]; 0.12 mg/kg weight) | binding capability to opioid receptors (opioid receptors) | anti-anxiety effect [2] | effect of lowering the blood pressure (blood pressure) | dye discharge percentage (gastric emptying, GE) [3] [%] | effect of preventing amnesia [4] | sympathetic nervous activity in the cutaneous artery in comparison with the water-administered group [5] | analgesic effect (pain) | sympathetic nervous activity in the adrenal gland in comparison with the water-administered group [6] |
| --- | --- | --- | --- | --- | --- | --- | --- | --- | --- | --- | --- |
| NCCC(=O)N[C@@H](Cc1cnc[nH]1)C(=O)O [carnosine] | an effect of controlling the autonomic nerve |  |  |  |  |  |  |  |  |  |  |
| Tyr-Pro |  | significantly increased | significantly increased | lacks binding capability to opioid receptors | exhibited an anti-anxiety effect | effect of lowering the blood pressure | 85.4±2.01 | an effect of preventing amnesia | a tendency was observed that the sympathetic nervous activity in the cutaneous artery was lowered | exhibit an analgesic effect | significantly decreased |

— US20120015882A1, “COMPOSITION FOR REGULATING AUTONOMIC NERVOUS ACTIVITY AND METHOD FOR REGULATING AUTONOMIC NERVE” (priority 2009, published 2012)
